Laboratory results published in US12570648B2, “6,7-dihydro-5H-pyrido[2,3-c]pyridazine derivatives and related compounds as Bcl-xL protein inhibitors and pro-apoptotic agents for treating cancer” (LES LABORATOIRES SERVIER, priority 2019, dated 2026).

Legend:
H146 cells = assay: H146 cell viability using MTT assay; type: cell-based; details: Homo sapiens, NCI-H146, 48 h exposure
Experimental: MTT colorimetric assay is based on the mitochondrial reduction of tetrazolium salt by living cells. The viable cell number is proportional to the production of formazan salts, which can be read spectrophotometrically at 540 nm.
MOLT-4 and H146 cells were purchased from ATCC and cultivated in RPMI 1640 supplemented with 10% heat inactivated fetal bovine serum, penicillin (100 IU/ml), streptomycin (100 μg/ml) and L-glutamine (2 mM). Cells were cultured at 37° C. in a humidified atmosphere containing 5% CO2. Cells were seeded in 96 microwell plates (150p per well) and exposed to the compounds for 48 h (3.16 fold serially diluted; 9 concentrations each, triplicates). At the end of incubation time, 15 μL of MTT solution (5 mg/ml) were added per well and the cells were incubated for another 4 h. Then, 100 μL of 10% Sodium Dodecyl Sulfate (SDS)/HCl 10 mM were added per well and the plate was incubated overnight, before measurement of optical density at 540 nm. IC50s were calculated using standard four-parametric curve fitting.

MOLT-4 cells = assay: MOLT-4 cell viability using MTT assay; type: cell-based; details: Homo sapiens, MOLT-4, 48 h, 48 h exposure
Experimental: MTT colorimetric assay is based on the mitochondrial reduction of tetrazolium salt by living cells.
Cells were cultured at 37° C. in a humidified atmosphere containing 5% CO2. […] At the end of incubation time, 15 μL of MTT solution (5 mg/ml) were added per well and the cells were incubated for another 4 h. […] IC50s were calculated using standard four-parametric curve fitting.

[1] = target: His-His-(EK)-hsBCLXL(2-197)[N197C] (Homo sapiens (Human), UniProt Q07817, N197C); assay: Fluorescence quenching assay; type: binding; details: 1 nM Cy5-labelled protein, 400 nM PUMA peptide, 2 hours at 23° C.; KI determined from IC50
Outline: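 Ki values converted from IC50s, measured as fluorescence increase (Ex 620/Em 680 nm) after 2 h at 23° C. Compounds were titrated over 11 points against 1 nM Cy5-BCL-xL and 400 nM quencher-tagged PUMA peptide in pH 7.4 HEPES (10 mM), 150 mM NaCl, 0.05% Tween 20, 5% DMSO.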

Sequence of His-His-(EK)-hsBCLXL(2-197)[N197C] (Q07817 2-197 N197C): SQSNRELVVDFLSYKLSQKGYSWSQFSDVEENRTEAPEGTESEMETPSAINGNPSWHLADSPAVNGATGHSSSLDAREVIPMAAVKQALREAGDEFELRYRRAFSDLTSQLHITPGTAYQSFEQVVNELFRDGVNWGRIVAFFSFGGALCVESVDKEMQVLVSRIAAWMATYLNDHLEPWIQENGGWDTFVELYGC

Cc1c(Nc2nc3ccccc3s2)nnc2c1CCN2c1nc(C(=O)O)cs1 [Example 11, 2-{3-[(1,3-Benzothiazol-2-yl)amino]-4-methyl-5H,6H,7H-pyrrolo[2,3-c]pyridazin-7-yl}-1,3-thiazole-4-carboxylic acid]
IC50 (H146 cells): 6360 nM | IC50 (MOLT-4 cells): 2430 nM

CNCC#Cc1ccc(OCCCc2sc(N3CCc4c3nnc(Nc3nc5ccccc5s3)c4C)nc2C(=O)O)c(F)c1 [Example 37, 2-[3-(1,3-Benzothiazol-2-ylamino)-4-methyl-5,6-dihydropyrrolo[2,3-c]pyridazin-7-yl]-5-[3-[2-fluoro-4-[3-(methylamino)prop-1-ynyl]phenoxy]propyl]thiazole-4-carboxylic acid]
IC50 (H146 cells): 10.2 nM | Ki [1]: 0.0077 nM | IC50 (MOLT-4 cells): 4.61 nM

CNCC#Cc1ccc(OCCCc2sc(N3CC(O)Cc4c3nnc(Nc3nc5ccccc5s3)c4C)nc2C(=O)O)c(F)c1 (stereo not shown) [Example 38, 2-[3-(1,3-Benzothiazol-2-ylamino)-6-hydroxy-4-methyl-6,7-dihydro-5H-pyrido[2,3-c]pyridazin-8-yl]-5-[3-[2-fluoro-4-[3-(methylamino)prop-1-ynyl]phenoxy]propyl]thiazole-4-carboxylic acid]
IC50 (H146 cells): 22.1 nM | Ki [1]: 0.0029 nM | IC50 (MOLT-4 cells): 59.4 nM

CNCCN[C@@H]1Cc2c(nnc(Nc3nc4ccccc4s3)c2C)N(c2nc(C(=O)O)c(CCCOc3ccc(CCCN(C)C)cc3F)s2)C1 [Example 39, 2-[(6R)-3-[(1,3-Benzothiazol-2-yl)amino]-4-methyl-6-{[2-(methylamino)ethyl]amino}-5H,6H,7H,8H-pyrido[2,3-c]pyridazin-8-yl]-5-(3-{4-[3-(dimethylamino)propyl]-2-fluorophenoxy}propyl)-1,3-thiazole-4-carboxylic acid]
IC50 (H146 cells): 33.6 nM | Ki [1]: 0.0098 nM | IC50 (MOLT-4 cells): 37.1 nM

Cc1c(Nc2nc3ccccc3s2)nnc2c1CCCN2c1nc(C(=O)O)c(CCCOc2ccc(C#CCN(C)C)cc2C(F)(F)F)s1 [Example 40, 2-{3-[(1,3-Benzothiazol-2-yl)amino]-4-methyl-5H,6H,7H,8H-pyrido[2,3-c]pyridazin-8-yl}-5-(3-{4-[3-(dimethylamino)prop-1-yn-1-yl]-2-(trifluoromethyl)phenoxy}propyl)-1,3-thiazole-4-carboxylic acid]
IC50 (H146 cells): 20.8 nM | Ki [1]: 0.057 nM | IC50 (MOLT-4 cells): 8.16 nM

Cc1c(Nc2nc3ccccc3s2)nnc2c1CCCN2c1nc(C(=O)O)c(CCCOc2ccc(C#CC(C)N3CCN(C)CC3)cc2F)s1 (stereo not shown) [Example 41, 2-[3-(1,3-Benzothiazol-2-ylamino)-4-methyl-6,7-dihydro-5H-pyrido[2,3-c]pyridazin-8-yl]-5-[3-[2-fluoro-4-[3-(4-methylpiperazin-1-yl)but-1-ynyl]phenoxy]propyl]thiazole-4-carboxylic acid]
IC50 (H146 cells): 3.67 nM | Ki [1]: 0.0025 nM | IC50 (MOLT-4 cells): 0.36 nM

Cc1c(Nc2nc3ccccc3s2)nnc2c1CCCN2c1nc(C(=O)O)c(CCCOc2ccc(C#CCN3CCCC3)cc2F)s1 [Example 42, 2-[3-(1,3-Benzothiazol-2-ylamino)-4-methyl-6,7-dihydro-5H-pyrido[2,3-c]pyridazin-8-yl]-5-[3-[2-fluoro-4-(3-pyrrolidin-1-ylprop-1-ynyl)phenoxy]propyl]thiazole-4-carboxylic acid]
IC50 (H146 cells): 3.02 nM | Ki [1]: 0.0028 nM | IC50 (MOLT-4 cells): 0.327 nM

Cc1c(Nc2nc3ccccc3s2)nnc2c1CCCN2c1nc(C(=O)O)c(CCCOc2ccc(C#CC(C)N3CCCC3)cc2F)s1 (stereo not shown) [Example 43, 2-[3-(1,3-Benzothiazol-2-ylamino)-4-methyl-6,7-dihydro-5H-pyrido[2,3-c]pyridazin-8-yl]-5-[3-[2-fluoro-4-(3-pyrrolidin-1-ylbut-1-ynyl)phenoxy]propyl]thiazole-4-carboxylic acid]
IC50 (H146 cells): 11.7 nM | Ki [1]: 0.0031 nM | IC50 (MOLT-4 cells): 1.71 nM

Cc1c(Nc2nc3ccccc3s2)nnc2c1CCCN2c1nc(C(=O)O)c(CCCOc2ccc(OCCN(C)C)cc2)s1 [Example 44, 2-{3-[(1,3-Benzothiazol-2-yl)amino]-4-methyl-5H,6H,7H,8H-pyrido[2,3-c]pyridazin-8-yl}-5-(3-{4-[2-(dimethylamino)ethoxy]phenoxy}propyl)-1,3-thiazole-4-carboxylic acid]
IC50 (H146 cells): 10.7 nM | Ki [1]: 0.0015 nM | IC50 (MOLT-4 cells): 4.04 nM

Cc1c(Nc2nc3ccccc3s2)nnc2c1CCCN2c1nc(C(=O)O)c(CCCOc2ccc(C#CCN3CCC3)cc2F)s1 [Example 45, 5-(3-{4-[3-(Azetidin-1-yl)prop-1-yn-1-yl]-2-fluorophenoxy}propyl)-2-{3-[(1,3-benzothiazol-2-yl)amino]-4-methyl-5H,6H,7H,8H-pyrido[2,3-c]pyridazin-8-yl}-1,3-thiazole-4-carboxylic acid]
IC50 (H146 cells): 10.6 nM | Ki [1]: 0.0049 nM | IC50 (MOLT-4 cells): 0.551 nM

Cc1c(Nc2nc3ccccc3s2)nnc2c1CCCN2c1nc(C(=O)O)c(CCCOc2ccc(C#CCN3CCCCC3)cc2F)s1 [Example 46, 2-[3-(1,3-Benzothiazol-2-ylamino)-4-methyl-6,7-dihydro-5H-pyrido[2,3-c]pyridazin-8-yl]-5-[3-[2-fluoro-4-[3-(1-piperidyl)prop-1-ynyl]phenoxy]propyl]thiazole-4-carboxylic acid]
IC50 (H146 cells): 11.1 nM | Ki [1]: 0.015 nM | IC50 (MOLT-4 cells): 1.2 nM

Cc1c(Nc2nc3ccccc3s2)nnc2c1CCCN2c1nc(C(=O)O)c(CCCOc2ccc(C#CCN3CCOCC3)cc2F)s1 [Example 47, 2-[3-(1,3-Benzothiazol-2-ylamino)-4-methyl-6,7-dihydro-5H-pyrido[2,3-c]pyridazin-8-yl]-5-[3-[2-fluoro-4-(3-morpholinoprop-1-ynyl)phenoxy]propyl]thiazole-4-carboxylic acid]
IC50 (H146 cells): 7.31 nM | Ki [1]: 0.0089 nM | IC50 (MOLT-4 cells): 0.957 nM

Cc1c(Nc2nc3ccccc3s2)nnc2c1CCCN2c1nc(C(=O)O)c(CCCOc2ccc(C#CCN3CCN(C)CC3)cc2F)s1 [Example 48, 2-[3-(1,3-Benzothiazol-2-ylamino)-4-methyl-6,7-dihydro-5H-pyrido[2,3-c]pyridazin-8-yl]-5-[3-[2-fluoro-4-[3-(4-methylpiperazin-1-yl)prop-1-ynyl]phenoxy]propyl]thiazole-4-carboxylic acid]
IC50 (H146 cells): 2.25 nM | Ki [1]: 0.0016 nM | IC50 (MOLT-4 cells): 0.309 nM

Cc1c(Nc2nc3ccccc3s2)nnc2c1CCCN2c1nc(C(=O)O)c(CCCOc2ccc(C#CCN3CCC(F)(F)CC3)cc2F)s1 [Example 49, 2-{3-[(1,3-Benzothiazol-2-yl)amino]-4-methyl-5H,6H,7H,8H-pyrido[2,3-c]pyridazin-8-yl}-5-(3-{4-[3-(4,4-difluoropiperidin-1-yl)prop-1-yn-1-yl]-2-fluorophenoxy}propyl)-1,3-thiazole-4-carboxylic acid]
IC50 (H146 cells): 33.4 nM | Ki [1]: 0.064 nM | IC50 (MOLT-4 cells): 2.13 nM

Cc1c(Nc2nc3ccccc3s2)nnc2c1CCCN2c1nc(C(=O)O)c(CCCOc2ccc(C#CCN3CCCC(F)(F)C3)cc2F)s1 [Example 50, 2-{3-[(1,3-Benzothiazol-2-yl)amino]-4-methyl-5H,6H,7H,8H-pyrido[2,3-c]pyridazin-8-yl}-5-(3-{4-[3-(3,3-difluoropiperidin-1-yl)prop-1-yn-1-yl]-2-fluorophenoxy}propyl)-1,3-thiazole-4-carboxylic acid]
IC50 (H146 cells): 87.7 nM | Ki [1]: 0.071 nM | IC50 (MOLT-4 cells): 3.71 nM

Cc1c(Nc2nc3ccccc3s2)nnc2c1CCCN2c1nc(C(=O)O)c(CCCOc2ccc(C#CCN(C)C)cc2Cl)s1 [Example 51, 2-{3-[(1,3-Benzothiazol-2-yl)amino]-4-methyl-5H,6H,7H,8H-pyrido[2,3-c]pyridazin-8-yl}-5-(3-{2-chloro-4-[3-(dimethylamino)prop-1-yn-1-yl]phenoxy}propyl)-1,3-thiazole-4-carboxylic acid]
IC50 (H146 cells): 9.6 nM | Ki [1]: 0.012 nM | IC50 (MOLT-4 cells): 2.54 nM

Cc1c(Nc2nc3ccccc3s2)nnc2c1CCCN2c1nc(C(=O)O)c(CCCOc2ccc(OCCN3CCCC3)cc2)s1 [Example 52, 2-{3-[(1,3-Benzothiazol-2-yl)amino]-4-methyl-5H,6H,7H,8H-pyrido[2,3-c]pyridazin-8-yl}-5-(3-{4-[2-(pyrrolidin-1-yl)ethoxy]phenoxy}propyl)-1,3-thiazole-4-carboxylic acid]
IC50 (H146 cells): 10.7 nM | Ki [1]: 0.0013 nM | IC50 (MOLT-4 cells): 2.42 nM

Cc1c(Nc2nc3ccccc3s2)nnc2c1CCCN2c1nc(C(=O)O)c(CCCOc2ccc(C#CCN3C[C@@H]4[C@H](C3)C4(F)F)cc2F)s1 [Example 63, 2-[3-(1,3-Benzothiazol-2-ylamino)-4-methyl-6,7-dihydro-5H-pyrido[2,3-c]pyridazin-8-yl]-5-[3-[4-[3-[(1S,5R)-6,6-difluoro-3-azabicyclo[3.1.0]hexan-3-yl]prop-1-ynyl]-2-fluoro-phenoxy]propyl]thiazole-4-carboxylic acid]
IC50 (H146 cells): 20.2 nM | Ki [1]: 0.081 nM
